Experimental data as given in patent publication US11447460B2, “Compounds and compositions for treating conditions associated with NLRP activity” (Novartis AG, priority 2016, dated 2022).
Where two headings read alike, the source gives them in different places.

Test system: IL-1β production in PMA-differentiated THP-1 cells
Assay: IL-1β production in PMA-differentiated THP-1 cells stimulated with gramicidin (hTHP-1 assay, 2% bovine serum; Bioassays 1 and 2)
Format: cell-based, human
Conditions: Homo sapiens, THP-1, hTHP-1 assay containing 2% bovine serum, read-out: Average IC50 of compounds in hTHP-1 assay
Method in brief: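 PMA-differentiated THP-1 cells in 2% FBS RPMI were pre-treated with compound for 1 h, then given gramicidin 5 μM for 2 h, and supernatants were assayed to give IC50. Protocol 1: PMA 10 μg/ml 24 h, 1×10^6 cells/ml, ELISA, 1% DMSO. Protocol 2: PMA 20 ng/ml 16-18 h, 50,000 cells/well, HTRF, 0.38% DMSO.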

CC(C)c1cc(F)cc(C(C)C)c1CC(=O)NS(=O)(=O)c1ncc(C(C)CO)s1 (centres unmarked) [Example 96, 2-(4-Fluoro-2,6-diisopropylphenyl)-N-(5-(1-hydroxypropan-2-yl)thiazol-2-ylsulfonyl)acetamide]
IC50 (Table 12, by Example #): 5 to 15 µM

Cc1sc(S(=O)(=O)NC(=O)Cc2c(C(C)C)cc(F)cc2C(C)C)cc1C(C)(C)O [Example 17, 2-(4-fluoro-2,6-diisopropylphenyl)-N-(4-(2-hydroxypropan-2-yl)-5-methylthiophen-2-ylsulfonyl)acetamide]
IC50 (Table 12, by Example #): 1 to 5 µM

CC(C)c1cc(F)cc(C(C)C)c1CC(=O)NS(=O)(=O)c1ccc(C(C)(C)O)c(F)c1 [Example 53, 2-(4-fluoro-2,6-diisopropylphenyl)-N-(3-fluoro-4-(2-hydroxypropan-2-yl)phenylsulfonyl)acetamide]
IC50 (Table 12, by Example #): < 1 µM

Cc1cc(C(C)(C)O)cc(S(=O)(=O)NC(=O)Cc2c(C(C)C)cc(F)cc2C(C)C)c1 [Example 46, 2-(4-fluoro-2,6-diisopropylphenyl)-N-(3-(2-hydroxypropan-2-yl)-5-methylphenylsulfonyl)acetamide]
IC50 (Table 12, by Example #): 1 to 5 µM

CC(C)c1c(F)cc(F)c(C(C)C)c1CC(=O)NS(=O)(=O)c1ncc(C(C)(C)O)s1 [Example 77, 2-(3,5-difluoro-2,6-diisopropylphenyl)-N-(5-(2-hydroxypropan-2-yl)thiazol-2-ylsulfonyl)acetamide]
IC50 (Table 12, by Example #): 1 to 5 µM

CC(C)c1cc(F)c(F)c(C(C)C)c1CC(=O)NS(=O)(=O)c1ncc(C(C)(C)O)s1 [Example 76, 2-(3,4-difluoro-2,6-diisopropylphenyl)-N-(5-(2-hydroxypropan-2-yl)thiazol-2-ylsulfonyl)acetamide]
IC50 (Table 12, by Example #): < 1 µM

CC(C)c1cccc(C(C)C)c1CC(=O)NS(=O)(=O)c1ccc(C(C)(C)O)cc1 [Example 21, 2-(2,6-diisopropylphenyl)-N-(4-(2-hydroxypropan-2-yl)phenylsulfonyl)acetamide]
IC50 (Table 12, by Example #): 1 to 5 µM

CC(C)c1cc(F)cc(C(C)C)c1CC(=O)NS(=O)(=O)c1cccc(CN(C)C)c1 [Compound 215]
IC50 (Table 13, by Final Target Number): 5 to 15 µM

CC(C)c1cc(F)cc(C(C)C)c1CC(=O)NS(=O)(=O)c1ccc(S(C)(=O)=O)cc1 [Example 58, 2-(4-fluoro-2,6-diisopropylphenyl)-N-(4-(methylsulfonyl)phenylsulfonyl)acetamide]
IC50 (Table 12, by Example #): 1 to 5 µM

CC(C)c1cccc(C(C)C)c1CC(=O)NS(=O)(=O)c1cc(C2(O)CC2)cs1 [Example 14, 2-(2,6-diisopropylphenyl)-N-(4-(1-hydroxycyclopropyl)thiophen-2-ylsulfonyl)acetamide]
IC50 (Table 12, by Example #): 1 to 5 µM

CC(C)c1cc(F)cc(C(C)C)c1CC(=O)NS(=O)(=O)c1cc(N2CCOCC2)cc(C(C)(C)O)c1 [Example 38, 2-(4-fluoro-2,6-diisopropylphenyl)-N-(3-(2-hydroxypropan-2-yl)-5-morpholinophenylsulfonyl)acetamide]
IC50 (Table 12, by Example #): 5 to 15 µM
